Reference: ChEMBL document CHEMBL4219234, “4-Substituted carbamazepine derivatives: Conformational analysis and sodium channel-blocking properties” (Bioorg Med Chem, 2018)
The source made the active and inactive calls. The calls are words filed in the database; no cut-off is given here.

Key:
[1] = molecular target: Sodium channel protein type 2 subunit alpha (Homo sapiens) (UniProt Q99250); experiment: Inhibition of human Nav1.2 expressed in CHOK1 cells assessed as reduction in peak inward current at 30th pulse using holding potential of -50 mV by patch clamp assay; format: cell-based
Sequence of Sodium channel protein type 2 subunit alpha (Homo sapiens) (Q99250 whole entry, looked up): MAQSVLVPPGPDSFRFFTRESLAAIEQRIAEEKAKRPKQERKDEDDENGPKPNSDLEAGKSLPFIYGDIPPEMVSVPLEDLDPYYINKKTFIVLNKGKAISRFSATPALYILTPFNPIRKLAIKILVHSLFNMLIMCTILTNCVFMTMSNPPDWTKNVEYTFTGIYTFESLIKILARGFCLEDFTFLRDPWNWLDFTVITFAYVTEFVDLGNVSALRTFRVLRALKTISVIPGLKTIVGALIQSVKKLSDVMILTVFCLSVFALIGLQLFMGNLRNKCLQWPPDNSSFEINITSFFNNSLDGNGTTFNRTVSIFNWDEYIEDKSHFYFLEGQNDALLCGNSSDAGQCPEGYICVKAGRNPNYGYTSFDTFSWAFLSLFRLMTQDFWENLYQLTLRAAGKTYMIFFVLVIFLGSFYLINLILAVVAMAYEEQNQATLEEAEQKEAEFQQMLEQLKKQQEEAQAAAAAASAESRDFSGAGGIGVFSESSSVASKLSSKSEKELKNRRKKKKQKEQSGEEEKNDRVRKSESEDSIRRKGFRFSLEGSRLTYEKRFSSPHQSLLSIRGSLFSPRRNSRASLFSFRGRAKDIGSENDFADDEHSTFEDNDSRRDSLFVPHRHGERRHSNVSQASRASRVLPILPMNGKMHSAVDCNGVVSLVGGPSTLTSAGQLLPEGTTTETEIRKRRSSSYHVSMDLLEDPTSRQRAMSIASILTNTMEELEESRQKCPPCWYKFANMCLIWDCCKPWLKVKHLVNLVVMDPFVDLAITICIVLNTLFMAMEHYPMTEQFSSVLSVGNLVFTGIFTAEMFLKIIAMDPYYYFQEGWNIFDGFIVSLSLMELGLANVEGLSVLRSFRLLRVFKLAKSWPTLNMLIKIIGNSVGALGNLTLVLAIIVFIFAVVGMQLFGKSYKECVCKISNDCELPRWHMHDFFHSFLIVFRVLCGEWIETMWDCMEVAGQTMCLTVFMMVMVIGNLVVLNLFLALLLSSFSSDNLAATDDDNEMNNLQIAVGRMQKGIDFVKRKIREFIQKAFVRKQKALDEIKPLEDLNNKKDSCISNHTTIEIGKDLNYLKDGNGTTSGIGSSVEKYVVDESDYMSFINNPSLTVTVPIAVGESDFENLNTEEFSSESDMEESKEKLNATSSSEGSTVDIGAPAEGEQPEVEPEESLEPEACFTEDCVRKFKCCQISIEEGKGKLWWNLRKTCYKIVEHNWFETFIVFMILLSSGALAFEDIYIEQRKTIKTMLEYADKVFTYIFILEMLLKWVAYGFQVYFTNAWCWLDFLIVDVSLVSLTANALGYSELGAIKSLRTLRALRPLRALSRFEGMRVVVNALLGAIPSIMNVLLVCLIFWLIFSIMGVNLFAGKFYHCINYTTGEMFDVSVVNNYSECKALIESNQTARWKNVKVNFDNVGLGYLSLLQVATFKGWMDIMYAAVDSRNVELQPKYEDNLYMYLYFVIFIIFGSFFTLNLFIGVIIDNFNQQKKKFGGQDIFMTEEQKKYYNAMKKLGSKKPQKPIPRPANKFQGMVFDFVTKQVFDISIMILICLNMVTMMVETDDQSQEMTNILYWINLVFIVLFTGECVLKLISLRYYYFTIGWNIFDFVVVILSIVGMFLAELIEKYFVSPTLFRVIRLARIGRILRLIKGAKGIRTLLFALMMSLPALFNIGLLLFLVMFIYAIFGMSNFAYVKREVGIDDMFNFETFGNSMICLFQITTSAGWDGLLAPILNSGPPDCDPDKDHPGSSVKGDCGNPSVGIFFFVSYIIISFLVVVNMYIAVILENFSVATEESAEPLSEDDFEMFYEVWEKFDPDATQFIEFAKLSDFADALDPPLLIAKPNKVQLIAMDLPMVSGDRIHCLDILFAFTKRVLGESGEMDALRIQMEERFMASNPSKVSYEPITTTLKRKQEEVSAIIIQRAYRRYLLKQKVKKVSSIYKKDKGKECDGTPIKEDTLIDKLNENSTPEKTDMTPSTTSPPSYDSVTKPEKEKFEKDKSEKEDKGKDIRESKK

[2] = Solubility of the compound in DMSO at > 30 uM; format: physicochemical
[3] = Solubility of the compound in DMSO at > 14.3 uM; format: physicochemical

| inhibition [1] | solubility [2] | solubility [3] | Structure (SMILES) |
| --- | --- | --- | --- |
| Active | – | – | NC(=O)N1c2ccccc2C=Cc2ccccc21 |
| Active | Insoluble | – | Cc1cccc2c1N(C(N)=O)c1ccccc1C=C2 |
| Active | – | Insoluble | NC(=O)N1c2ccccc2C=Cc2cccc(Cl)c21 |
